Measurements published in PMC6216040, “Repurposing of an old drug: In vitro and in vivo efficacies of buparvaquone against Echinococcus multilocularis” (International Journal for Parasitology: Drugs and Drug …, 2018).
In brackets after ≈: the same amount, converted by molar mass. Where two headings read alike, the source gives them in different places.

How the values were obtained:
[1] = tested on: E. multilocularis metacestodes; assay: PGI-assay: drug-induced damage on in vitro cultured metacestodes (Pathogen Box screening cascade and EC50); format: cell-based, Echinococcus multilocularis; conditions: for activity in the screen at 10 μM (confirmed in triplicates, >20% relative PGI release): 5 and 12 days
[2] = tested on: E. granulosus protoscoleces; parameters: method as in Bonilla et al., 2008; conditions: after 48 h; ref Bonilla et al., 2008; cited from earlier work
[3] = parameters: method as in Smith et al., 2018; conditions: mice, oral, single dose of 6 mg/kg; ref Smith et al., 2018; cited from earlier work
[4] = tested on: E. multilocularis metacestodes; assay: BPQ treatment of E. multilocularis infected mice; format: in vivo, Balb/c mice; conditions: for parasite burden compared to the control: p.o. in corn oil, 5 days per week, 4 weeks, BPQ 100 mg/kg, ABZ 200 mg/kg
Procedure: Balb/c mice, 6 weeks old, were purchased from Charles River Laboratories (Sulzheim, Germany) and used for in vivo experiments when they were 8 weeks old and weighted approximately 20 g. The mice were housed in a type 3 cage containing enrichment in the form of a cardboard house and paper and woodchip bedding with a maximum of seven mice per cage. […] Food and water was provided ad libitum. Experimentally infected mice were treated with BPQ to elucidate the efficacy of the drug in vivo. To infect mice, in vitro grown E. multilocularis metacestodes (isolate […]) were washed in PBS, were mechanically destroyed by pipetting and the resulting suspension was centrifuged for 5 min at 500 g. The parasite tissue was then taken up in an equal volume of PBS. Each mouse was subsequently infected intraperitoneally (i.p.) with 200 μl of this suspension. […] infected mice were randomly distributed into 3 treatment groups (8 animals per group) with 4 animals per cage. […] Treatments of mice started 2 weeks post-infection and lasted for 4 weeks, with consecutive treatment of mice for 5 days per week, followed by an interruption of treatment for 2 days for recovery. All treatments were administered by oral gavage in a volume of 50 μl, with ABZ and BPQ being suspended in corn oil. After four weeks, all mice were anesthetized with isoflurane and subsequently euthanized by CO2. The parasitic tissue from each mouse was completely resected and weighed. The mass of the resected parasitic tissue was used for statistical analyses of the experiment. […] The significance level was set to p < 0.05. Figures were prepared in R and Adobe Illustrator 2015.1.0.

[5] = tested on: human foreskin fibroblasts (HFF); assay: Cytotoxicity by Alamar Blue assay in human foreskin fibroblasts; conditions: Homo sapiens, Fibroblast, 120 h
[6] = tested on: E. multilocularis metacestodes; assay: PGI-assay under anaerobic/aerobic conditions; conditions: oxygen-free atmosphere, 5 days
[7] = tested on: E. multilocularis metacestodes; assay: Transmission electron microscopy of BPQ-treated metacestodes; format: cell-based, Echinococcus multilocularis
Procedure: The preparation of the samples for transmission electron microscopy (TEM) was done according to the protocol of [Hemphill and Croft (1997)]. In short, E. multilocularis metacestodes were distributed to 48-well-plates and incubated with DMSO or BPQ (30–0.04 μM) as described above. After an incubation period of 5 days, metacestodes were fixed in 2% glutaraldehyde in 0.1 M sodium cacodylate buffer; pH = 7.3 for 1 h. Next, the samples were stained for 2 h in a 2% osmium tetroxide solution cacodylate buffer, and subsequently pre-stained in a saturated uranyl acetate solution for 30 min. After washing the samples with water, they were dehydrated stepwise by washing in increasing concentrations of ethanol (30%, 50%, 70%, 90%, and three times 100%). The samples were then embedded in Epon 812 resin with three subsequent resin changes during 2 days and incubated at 65 °C overnight for polymerization. Sections for TEM (80 nm) were cut using an ultramicrotome (Reichert and Jung, Vienna, Austria), and were loaded onto formvar-carbon coated nickel grids (Plano GmbH, Marburg, Germany). The specimens were finally stained with uranyl acetate and lead citrate, and were viewed on a CM12 transmission electron microscope (Philips Electron Optics, Eindhoven, Netherlands) that operates at 80 kV.

[8] = tested on: mitochondrial respiration of E. multilocularis GL cells; assay: Mitochondrial respiration (OCR) in permeabilized GL cells by Seahorse XFp analyzer; format: cell-based, Echinococcus multilocularis; conditions: 1 μM
[9] = tested on: E. multilocularis metacestodes; assay: Vesicle viability assay by Alamar Blue (MIC); format: cell-based, Echinococcus multilocularis; conditions: Echinococcus multilocularis, 288 h; Alamar Blue vesicle viability assay, 12 days of incubation; read-out: E. multilocularis MIC
Procedure: The setup was the same as for PGI-assay EC50 calculations and it was performed in triplicates. […] Data was used to calculate the minimal inhibitory concentrations (MICs) of these compounds on metacestodes.

[10] = BPQ levels in orally treated mice (literature); format: in vivo; conditions: extrapolation to 100 mg/kg
[11] = tested on: Reuber rat hepatoma (RH) cells; assay: Cytotoxicity by Alamar Blue assay in rat hepatoma cells; format: cell-based; conditions: 120 h, Alamar Blue, 5 days
[12] = 1 µM, triplicates, 5 days of incubation
[13] = 1 µM, triplicates, 12 days of incubation

CC(=O)OCC1OC([S-])C(OC(C)=O)C(OC(C)=O)C1OC(C)=O.CCP(CC)CC.[Au+] (stereo not shown) [MMV688978, Auranofin, reference compound]
activity against metacestodes at 1 μM ([1]; triplicates): not at 1 μM | PGI release, % of Tx-100 control, average, 5d [1, 12]: -2.65% | PGI release, % of Tx-100 control, average, 12d [1, 13]: -1.30% | activity in the screen at 10 μM (confirmed in triplicates, >20% relative PGI release) [1]: active | PGI release, % of the Tx-100 control, 5d ([1]; 10 µM, singlets, 5 days of incubation): 84.86% | PGI release, % of the Tx-100 control, 12d ([1]; 10 µM, singlets, 12 days of incubation): 96.09% | PGI release, % of Tx-100 control, average, 5d ([1]; confirmatory screening at 10 µM in triplicates, 5 days of incubation, values as % of Tx-100 control): 47.33% | PGI release, % of Tx-100 control, average, 12d ([1]; confirmatory screening at 10 µM in triplicates, 12 days of incubation, values as % of Tx-100 control): 61.40% | concentration killing protoscoleces [2]: 2.5 µM

CC(C)(C)[C@H]1CC[C@H](CC2=C(O)C(=O)c3ccccc3C2=O)CC1 [MMV689480, Buparvaquone]
Cmax [3]: 1200 nM | parasite burden compared to the control [4]: failed to reduce the parasite burden | parasite burden compared to the control ([4]; listed as BPQ): no significant difference | adverse effects due to treatment ([4]; whole course of treatment, 4 weeks p.o.): None of the mice showed signs of adverse effects | activity against metacestodes at 1 μM ([1]; triplicates): distinct in vitro activities | PGI release, % of Tx-100 control, average, 5d [1, 12]: 1.05% | PGI release, % of Tx-100 control, average, 12d [1, 13]: 52.04% | activity in the screen at 10 μM (confirmed in triplicates, >20% relative PGI release) [1]: active | cytotoxicity at 10 µM ([1]; Echinococcus multilocularis, 120 h, 10 µM, singlets, 5 days of incubation, read-out: PGI release, % of the Tx-100 control, 5d): 27.4% | EC50 ([1]; Echinococcus multilocularis, 120 h, PGI-assay, 5 days in vitro, read-out: E. multilocularis EC50): 2.87 µM | PGI release, % of Tx-100 control at 10 µM ([1]; Echinococcus multilocularis, 120 h, confirmatory screening at 10 µM in triplicates, 5 days of incubation, values as % of Tx-100 control, read-out: PGI release, % of Tx-100 control, average, 5d): 41.2% | cytotoxicity at 10 µM ([1]; Echinococcus multilocularis, 288 h, 10 µM, singlets, 12 days of incubation, read-out: PGI release, % of the Tx-100 control, 12d): 38.6% | PGI release, % of Tx-100 control at 10 µM ([1]; Echinococcus multilocularis, 288 h, confirmatory screening at 10 µM in triplicates, 12 days of incubation, values as % of Tx-100 control, read-out: PGI release, % of Tx-100 control, average, 12d): 63.7% | IC50 ([1]; Echinococcus multilocularis, read-out: IC50 against in vitro cultured E. multilocularis metacestodes): 2.87 µM | toxicity against E. multilocularis metacestodes compared with host cells (HFF, RH) ([1]; comparison of EC50 with IC50 on mammalian cells): specific toxicity | IC50 ([5]; read-out: HFF confluent IC50): 48.6 µM | IC50 ([5]; read-out: HFF preconfluent IC50): 5.99 µM | damage on metacestodes (PGI-assay), anaerobic, 10 μM or lower ([6]; 10 μM or lower): did not induce damage | damage on metacestodes (PGI-assay), anaerobic, 30 μM ([6]; 30 μM): active | ultrastructural alterations (TEM) at 1 μM ([7]; 1 μM, 5 days): membrane stacks were observed, and the GL started to separate from the LL | ultrastructural alterations (TEM) at 3 μM ([7]; 3 μM, 5 days): metacestode integrity was seriously impaired | lowest concentration with ultrastructural damage (TEM) ([7]; 5 days of BPQ): 0.3 µM | oxygen consumption rate (OCR) after addition of drug ([8]; permeabilized GL cells fed with succinate): rapidly decreased | inhibition of mitochondrial electron transport chain complex ([8]; OCR restored by ascorbate/TMPD, not by succinate or glycerol 3-phosphate): selectively inhibits complex III | MIC [9]: 0.56 µM (≈ 0.183 µg/mL) | Cmax extrapolated (assuming linear correlation) [10]: 20000 nM | IC50 ([11]; confluent cells, read-out: RH confluent IC50): 17.4 µM | IC50 ([11]; preconfluent cells, read-out: RH preconfluent IC50): 8.47 µM
